Measurements from US20060035810A1, “Regulation of ins(3456)p4 signalling by a reversible kinase phosphatase and methods and compositions related thereto” (priority 2002, published 2006).

Key:
Assay type in all cases: cell-based, mouse
[1] = system: insulin granules in pancreatic β-cells; test: Insulin granule acidification, LSG fluorescence with patch-clamp and confocal imaging
Method: FIG. 6. Ins(3,4,5,6)P4 inhibits acidification of insulin granules in pancreatic β-cells. FIG. 6A, Representative time-courses for intragranular acidification, monitored by increased fluorescence of LSG before and after establishment of the standard whole-cell configuration (see arrow) and the effect of perfusion of intracellular medium (containing 0.4 μM [Ca^2+]free except where “no calcium” is indicated; see Methods) plus either 0 (“control”), 1 or 10 μM Ins(3,4,5,6)P4. FIG. 6B, Mean (±SE) fluorescence changes (n-5-11), during the 60 s that followed establishment of the standard whole-cell configuration, for cells perfused with inositol phosphates as indicated at the base of the bar graph. Where indicated, DIDS (100 μM) were added to the bath solution 30 min prior to patching the cells. Statistical significance was evaluated by Student's unpaired t-test (* P<0.01).
The inositol phosphates used in this study were all purchased from CellSignals Inc (Lexington, Ky.). Insulin granule pH were monitored by combining the patch-clamp technique with confocal imaging. Pancreatic β-cells, isolated and cultured on glass coverslips for 2-24 h, were voltage clamped at −70 mV, as previously described (B9). LysoSensor-Green™ DND-189 (1 μM; Molecular Probes, Leiden, The Netherlands) was added during the last 30 min of cell culture and was also included in the extracellular buffer (B9) that continuously perfused the experimental chamber. All LSG experiments were performed at 20° C. to prevent exocytosis that otherwise interfered with the optical measurements (15). LSG fluorescence was excited using the 488 nm-line of a Zeiss 510 confocal microscope. The emitted light was collected with a 63×/1.3 NA oil objective and a >505 nm filter. Laser scanning was performed with low pixel resolution (128×128) and with 6 s intervals to minimize photo-bleaching. After gigaseal formation, it was ascertained that LSG fluorescence was stable for at least 30 s before the experiment commenced. The intracellular electrode solution contained: 125 mM K-glutamate, 10 mM KCl, 1 0 mM NaCl, 1 mM MgCl2, 5 mM HEPES, 3 mM Mg-ATP, 0.1 mM cAMP, 10 mM EGTA and 7 mM CaCl2 (˜0.4 μM free [Ca^2+]I; pH 7.2 with KOH). In some experiments, marked “no calcium”, there was no added Ca^2+, and the concentration of EGTA was 50 μM. Whole-cell capacitance measurements (at 33° C.) were made with the cells clamped at −70 mV, and the standard whole-cell configuration was established at t=0. Capacitance recordings were made using an EPC-7 patch-clamp amplifier equipped with the software Pulse (version 8.4 and later) and the X-chart extension (HEKA Elektronik, Lambrecht/Pfalz, Germany) (B9).

[2] = system: insulin granules in pancreatic β-cells; test: CCCP-mediated de-acidification of insulin granules, LSG fluorescence
Method: FIG. 7A, Representative confocal images of LSG fluorescence immediately before (zero) and 60 s after perfusion of cells with intracellular buffer supplemented with 100 μM of the protonophore, CCCP, in the absence or presence of 10 μM Ins(3,4,5,6)P4. FIG. 7B, Representative time-courses for changes in LSG-fluorescence ([F/F0] as % of zero time) immediately after establishing a standard whole-cell configuration as in panel A, with intracellular medium (containing 0.4 μM [Ca^2+]free except where “no calcium” is indicated; see Methods) plus 100 μM CCCP, together with either 0 (“control”) or 10 μM Ins(3,4,5,6)P4. FIG. 7C, Mean (±SE) fluorescence changes (n=4-6), during the 60 s that followed establishment of the standard whole-cell configuration, for cells perfused with intracellular medium supplemented with inositol phosphates as indicated at the base of the bar graph ([…]).
The inositol phosphates used in this study were all purchased from CellSignals Inc (Lexington, Ky.). Insulin granule pH were monitored by combining the patch-clamp technique with confocal imaging. Pancreatic β-cells, isolated and cultured on glass coverslips for 2-24 h, were voltage clamped at −70 mV, as previously described (B9). LysoSensor-Green™ DND-189 (1 μM; Molecular Probes, Leiden, The Netherlands) was added during the last 30 min of cell culture and was also included in the extracellular buffer (B9) that continuously perfused the experimental chamber. All LSG experiments were performed at 20° C. to prevent exocytosis that otherwise interfered with the optical measurements (15). LSG fluorescence was excited using the 488 nm-line of a Zeiss 510 confocal microscope. The emitted light was collected with a 63×/1.3 NA oil objective and a >505 nm filter. Laser scanning was performed with low pixel resolution (128×128) and with 6 s intervals to minimize photo-bleaching. After gigaseal formation, it was ascertained that LSG fluorescence was stable for at least 30 s before the experiment commenced. The intracellular electrode solution contained: 125 mM K-glutamate, 10 mM KCl, 1 0 mM NaCl, 1 mM MgCl2, 5 mM HEPES, 3 mM Mg-ATP, 0.1 mM cAMP, 10 mM EGTA and 7 mM CaCl2 (˜0.4 μM free [Ca^2+]I; pH 7.2 with KOH). In some experiments, marked “no calcium”, there was no added Ca^2+, and the concentration of EGTA was 50 μM. Whole-cell capacitance measurements (at 33° C.) were made with the cells clamped at −70 mV, and the standard whole-cell configuration was established at t=0. Capacitance recordings were made using an EPC-7 patch-clamp amplifier equipped with the software Pulse (version 8.4 and later) and the X-chart extension (HEKA Elektronik, Lambrecht/Pfalz, Germany) (B9). […]

pancreatic β-cells = test: Ca2+-induced exocytosis, whole-cell capacitance recordings
Method: FIG. 8A, Representative increases in cell capacitance (ΔC), reflecting exocytosis (as is described in Barg et al., J. Cell Sci 114: 2145-2154 (2001)), elicited by intracellular perfusion with intracellular solution (0.4 μM [Ca^2+]free), containing either 0 (“control”) or 10 μM Ins(3,4,5,6)P4. FIG. 8B, Average rates of capacitance increase (ΔC/Δt) during the first minute of recording, as described for FIG. 8A, in 5-17 experiments. FIG. 8C, Representative increases in ΔC, measured under the same conditions as in FIG. 8A, except that the [Ca^2+]free was 1.5 μM. FIG. 8D, Average rates of capacitance increase (ΔC/Δt) during the first minute of recording, as described for FIG. 8C, in 6-11 experiments.
The inositol phosphates used in this study were all purchased from CellSignals Inc (Lexington, Ky.). Insulin granule pH were monitored by combining the patch-clamp technique with confocal imaging. Pancreatic β-cells, isolated and cultured on glass coverslips for 2-24 h, were voltage clamped at −70 mV, as previously described (B9). LysoSensor-Green™ DND-189 (1 μM; Molecular Probes, Leiden, The Netherlands) was added during the last 30 min of cell culture and was also included in the extracellular buffer (B9) that continuously perfused the experimental chamber. All LSG experiments were performed at 20° C. to prevent exocytosis that otherwise interfered with the optical measurements (15). LSG fluorescence was excited using the 488 nm-line of a Zeiss 510 confocal microscope. The emitted light was collected with a 63×/1.3 NA oil objective and a >505 nm filter. Laser scanning was performed with low pixel resolution (128×128) and with 6 s intervals to minimize photo-bleaching. After gigaseal formation, it was ascertained that LSG fluorescence was stable for at least 30 s before the experiment commenced. The intracellular electrode solution contained: 125 mM K-glutamate, 10 mM KCl, 1 0 mM NaCl, 1 mM MgCl2, 5 mM HEPES, 3 mM Mg-ATP, 0.1 mM cAMP, 10 mM EGTA and 7 mM CaCl2 (˜0.4 μM free [Ca^2+]I; pH 7.2 with KOH). In some experiments, marked “no calcium”, there was no added Ca^2+, and the concentration of EGTA was 50 μM. Whole-cell capacitance measurements (at 33° C.) were made with the cells clamped at −70 mV, and the standard whole-cell configuration was established at t=0. […]
The degree of insulin granule acidification in pancreatic β-cells has been proposed to affect their fusogenic potential, thereby influencing the rate of insulin secretion by exocytosis (B9;B16). So we next investigated if the interaction of Ins(3,4,5,6)P4 with insulin granule Cl^− channels affected exocytosis, which we recorded by monitoring capacitance of β-cells with the whole-cell patch-clamp technique (B16). […]

SMILES	effect on granule acidification ([1]; 1 μM (resting level))	reduction of the rate of acidification of the granular interior ([1]; 10 μM perfused into the cell, 0.4 μM [Ca2+]free)	effect on CCCP-induced collapse of the pH gradient ([2]; 1 μM (resting level))	effect on CCCP-induced H+ flux ([2]; 10 μM, 100 μM CCCP)	effect on exocytosis (pancreatic β-cells; 1 μM, 0.4 μM [Ca2+]free)	effect on rate of exocytosis (pancreatic β-cells; 1.5 μM [Ca2+]free)	inhibition at 10 µM (pancreatic β-cells; Mus musculus, 10 μM, 0.4 μM [Ca2+]free) [%]	effect on vesicle acidification ([1]; 100 μM)	effect on rate of CCCP-promoted H+ efflux out of the granule ([2]; 100 μM, 100 μM CCCP)	effect on exocytosis (pancreatic β-cells; 100 μM, 0.4 μM [Ca2+]free)
O=P(O)(O)OC1C(O)C(O)C(OP(=O)(O)O)C(OP(=O)(O)O)C1OP(=O)(O)O (stereo not shown) [Ins(3,4,5,6)P4, inositol 3,4,5,6-tetrakisphosphate]	ineffective	approximately 65%	failed to affect	inhibitory effect	ineffective	did not affect	~50			
O=P(O)(O)OC1[C@@H](OP(=O)(O)O)[C@H](OP(=O)(O)O)C(O)[C@H](OP(=O)(O)O)[C@H]1OP(=O)(O)O (stereo partly shown) [Ins(1,3,4,5,6)P5, inositol 1,3,4,5,6-pentakisphosphate]								neither 100 μM Ins(1,4,5,6)P4 nor 100 μM Ins(1,3,4,5,6)P5 affected	no effect	no effect
